The subject of experiment [1] is S. epidermidis. Nature of the experiment: Broth dilution assay (MIC). In kind it is cell-based. Conditions: S. epidermidis SE005. On the procedure:
(§1) This assay also uses calcium and magnesium supplemented Mueller Hinton broth as the growth medium. Typically 100 μl of broth is dispensed into each well of a 96-well microtitre plate and 100 μl volumes of two-fold serial dilutions of the peptide analogue are made across the plate. One row of wells receives no peptide and is used as a growth control. Each well is inoculated with approximately 5×10^5 CFU of bacteria and the plate is incubated at 35-37° C. for 16-20 hours.
(§2) For example, MIC values were established for a series of peptide analogues against S. aureus strains.

Experiment [2] concerns S. marcescens. Nature of the experiment: Synergy assay (agarose dilution, FIC). In kind it is cell-based. Conditions: S. marcescens SBSM1. On the procedure:
(§3) Briefly, one assay for in vitro anti-bacterial activity, the agarose dilution assay, is set up with an array of plates that each contain a combination of peptide analogue and antibiotic in various concentrations. The plates are inoculated with bacterial isolates, incubated, and the MICs of the components recorded. […] Antibiotics used in testing include, but are not limited to, penicillins, cephalosporins, carbacephems, cephamycins, carbapenems, monobactams, aminoglycosides, glycopeptides, quinolones, tetracyclines, macrolides, and fluoroquinolones (see Table 1 below).
(§4) Synergy is calculated according to the formula below. An FIC of ≦0.5 is evidence of synergy, although combinations with higher values may be therapeutically useful. [formula]
(§5) Treatment with a combination of peptide analogues and conventional antibiotics can have a synergistic effect. Synergy is assayed using the agarose dilution technique, where an array of plates, each containing a combination of peptide and antibiotic in a unique concentration mix, is inoculated with the bacterial isolates. Synergy is investigated for peptide analogues in combination with a number of conventional antibiotics including, but not limited to, penicillins, cephalosporins, carbapenems, monobactams, aminoglycosides, macrolides, fluoroquinolones.
(§6) Synergy is expressed as a Fractional Inhibitory Concentration (FIC), which is calculated according to the equation below. An FIC of less than or equal to 0.5 is evidence of synergy, although combinations with higher values may be therapeutically useful. [formula]

Experiment [3] relates to E. faecalis. Nature of the experiment: Synergy assay (agarose dilution, FIC). Format: cell-based. Conditions: E. faecalis EFS8. Here is the method: as §3, §4, §5, §6
Experiment [4] relates to E. coli. Nature of the experiment: Synergy assay (agarose dilution, FIC). Conditions: E. coli ECO1. In kind it is cell-based. On the procedure:
as §3, §4, §5, §6

Experiment [5] concerns P. aeruginosa. In words: Synergy assay (agarose dilution, FIC). In kind it is cell-based. Conditions: P. aeruginosa PA3. On the procedure:
as §3, §4, §5, §6

For experiment [6], the system named is S. aureus. In words: Synergy assay (agarose dilution, FIC). Format: cell-based. Conditions: for Mupirocin Comb. MIC: MIC of Mupirocin in combination with the peptide; for Peptide Comb. MIC: MIC of peptide in combination with Mupirocin; for FIC: peptide + Mupirocin. Here is the method:
as §3, §4
Synergy is assayed using the agarose dilution technique, where an array of plates, each containing a combination of peptide and antibiotic in a unique concentration mix, is inoculated with the bacterial isolates. Synergy is investigated for peptide analogues in combination with a number of conventional antibiotics including, but not limited to, penicillins, cephalosporins, carbapenems, monobactams, aminoglycosides, macrolides, fluoroquinolones.
as §6

The subject of experiment [7] is S. aureus. In words: Broth dilution assay (MIC). Format: cell-based. Conditions: S. aureus SA002. Here is the method: as §1, §2
The test system of experiment [8] is S. marcescens. In words: Broth dilution assay (MIC). In kind it is cell-based. Conditions: S. marcescens SMS003. Here is the method:
as §1, §2

For experiment [9], the system named is E. cloacae. In words: Broth dilution assay (MIC). Format: cell-based. Conditions: E. cloacae ECL007. Here is the method: as §1, §2
For experiment [10], the system named is S. maltophilia. Nature of the experiment: Broth dilution assay (MIC). Format: cell-based. Conditions: S. maltophilia SMA002. On the procedure: as §1, §2
Experiment [11] concerns E. faecalis. Nature of the experiment: Broth dilution assay (MIC). In kind it is cell-based. Conditions: E. faecalis EFS004. On the procedure: as §1, §2
Experiment [12] concerns E. coli. In words: Broth dilution assay (MIC). Conditions: E. coli ECO005. In kind it is cell-based. Here is the method: as §1, §2
Experiment [13] concerns K. pneumoniae. In words: Broth dilution assay (MIC). Conditions: K. pneumoniae KP001. Format: cell-based. On the procedure:
as §1, §2

Experiment [14] relates to P. aeruginosa. In words: Broth dilution assay (MIC). In kind it is cell-based. Conditions: P. aeruginosa PA004. Here is the method: as §1, §2
Experiment [15] concerns A. calcoaceticus. Nature of the experiment: Broth dilution assay (MIC). In kind it is cell-based. Conditions: A. calcoaceticus AC001. Here is the method:
as §1, §2

In experiment [16] the test system is MSSA (Smith, ATCC # 19640). Nature of the experiment: MSSA infection, mouse survival. Format: in vivo, mice. Conditions: below 14.5 mg/kg ip, formulation D.
Experiment [17] concerns E.coli strain ML-35. In kind it is cell-based. Conditions: for Growth time of cells at which maximum activity occurs: 50 μg/ml peptide.
The subject of experiment [18] is E. coli. In words: MIC of APS-modified and parent peptides. Format: cell-based. Conditions: E. coli ECO005.
Experiment [19] relates to S. aureus. In words: MIC of APS-modified and parent peptides. In kind it is cell-based. On the procedure:
(§7) All biological assays that compare APS-modified peptides with unmodified peptides are performed on an equimolar ratio. The concentration of APS-modified peptides can be determined by spectrophotometric measurement, which is used to normalize concentrations for biological assays.
(§8) APS-modified peptides are at least as potent as the parent peptides in in vitro assays performed as described herein. MIC values against gram positive bacteria are presented for several APS-modified peptides and compared with the values obtained using the parent peptides (Table 22).

Experiment [20] deals with E. faecalis. In words: MIC of APS-modified and parent peptides. In kind it is cell-based. On the procedure:
as §7, §8

Experiment [21] relates to P. aeruginosa. Nature of the experiment: MIC of APS-modified and parent peptides. In kind it is cell-based. Conditions: P. aeruginosa PA004.
The subject of experiment [22] is A. calcoaceticus. Nature of the experiment: MIC of APS-modified and parent peptides. Format: cell-based. Conditions: A. calcoaceticus AC002.
In experiment [23] the test system is S. maltophilia. In words: MIC of APS-modified and parent peptides. In kind it is cell-based. Conditions: S. maltophilia SMA002.
Experiment [24] deals with S. marcescens. In words: MIC of APS-modified and parent peptides. Conditions: S. marcescens SMS003. In kind it is cell-based.
The test system of experiment [25] is K. pneumoniae. In words: MIC of APS-modified and parent peptides. In kind it is cell-based. Conditions: K. pneumoniae KP001.
Experiment [26] has as its system E. cloacae. In words: MIC of APS-modified and parent peptides. Conditions: E. cloacae ECL007. Format: cell-based.
Setting [27] is: MIC of Mupirocin in combination with the peptide.
The mark [28] stands for this setting: MIC of peptide in combination with Mupirocin.

Where two headings read alike, the source gives them in different places.

As to I L K K F P F F P F R R K [MBI 11A1CN], the MIC in experiment [1] was 16 µg/mL. In addition, the “Mupirocin Comb. MIC” value in [2] (setting [27]) was over 100 µg/mL; in experiment [3] (setting [27]) it was 100 µg/mL; in experiment [4] (setting [27]), 10 µg/mL; in experiment [5] (setting [27]) it was over 100 µg/mL; in experiment [6] (S. aureus SBSA3) it was 100 µg/mL; in [6] (S. aureus SBSA5), 10 µg/mL. For the same substance, the “Peptide Comb. MIC” value in [2] (setting [28]) was over 128 µg/mL; in [3] (setting [28]), over 128 µg/mL; in experiment [4] (setting [28]) it was 4 µg/mL; in experiment [5] (setting [28]), over 128 µg/mL; in experiment [6] (S. aureus SBSA3) it was over 128 µg/mL; in experiment [6] (S. aureus SBSA5), 32 µg/mL. Also, the FIC in [2] (peptide + Mupirocin) came out at 2; in experiment [3] (peptide + Mupirocin), 2; in experiment [4] (peptide + Mupirocin), 0.14; in [5] (peptide + Mupirocin), 2; in [6] (S. aureus SBSA3) it was 2; in [6] (S. aureus SBSA5) it was 0.58.
Regarding I L K K I P I I P I R R K [MBI 11A2CN], the minimal inhibitory concentration (MIC) in [7], in [8], in [9], in experiment [10], in experiment [11] and in [12] was over 256 µg/mL each time. Moreover, the minimum inhibitory concentration (MIC) in [13] is over 256 µg/mL; in experiment [1] it was 256 µg/mL; in [14] it was over 256 µg/mL; in experiment [15], over 256 µg/mL.
In the case of I L P W K W P W W P W R R [MBI 10CN], the MIC is 16 µg/mL in experiment [7]; over 256 µg/mL in [8]; 256 µg/mL in experiment [9]; 64 µg/mL in experiment [10]; 64 µg/mL in experiment [11]; 64 µg/mL in experiment [12]. For the same substance, the minimal inhibitory concentration (MIC) in experiment [13] was 64 µg/mL; in experiment [1] it was 8 µg/mL; in experiment [14], over 256 µg/mL; in experiment [15], 64 µg/mL. The “survival at lower doses” value in experiment [16] is listed as “clear dose-dependent survival”. For the same substance, the “ONPG hydrolysis diminished, cells pre-incubated with valinomycin vs no pre-incubation” value in experiment [17] (valinomycin pre-incubation) is on record as “approximately 50%”.
I L R R W P W W P W R K [MBI 11B2CN]: the MIC in experiment [7] was 32 µg/mL; in experiment [8], over 256 µg/mL; in experiment [9] it was over 256 µg/mL; in experiment [10], 32 µg/mL; in [11] it was 64 µg/mL; in experiment [12], 64 µg/mL. The MIC in [13] was over 256 µg/mL; in experiment [1], 4 µg/mL; in experiment [14], 256 µg/mL; in [15] it was 128 µg/mL.
Regarding I L R R W P W W P W R R K [MBI 11B1CN], the “Corrected MIC” value in experiment [18] came out at 8 µg/mL; in [19] (S. aureus SA010), 1 µg/mL; in experiment [19] (S. aureus SA014), 8 µg/mL; in experiment [19] (S. aureus SA018), 16 µg/mL; in [19] (S. aureus SA025) it was 1 µg/mL; in experiment [19] (S. aureus SA093) it was 1 µg/mL. Besides, the “Corrected MIC” value in experiment [20] (E. faecalis EFS004) was 8 µg/mL; in experiment [20] (E. faecalis EFS008) it was 32 µg/mL; in [21] it was 128 µg/mL; in experiment [22], 2 µg/mL; in experiment [23], 128 µg/mL; in [24], over 128 µg/mL. Further, the minimal inhibitory concentration (MIC) in experiment [7] is 32 µg/mL; in experiment [8], over 256 µg/mL; in experiment [9] it was over 256 µg/mL; in [10], 32 µg/mL; in [11] it was 64 µg/mL; in experiment [12] it was 64 µg/mL. Moreover, the minimum inhibitory concentration (MIC) in [13] was over 256 µg/mL; in [1], 4 µg/mL; in [14], 64 µg/mL; in experiment [15], 64 µg/mL.
I L R W P W W P W R R K [MBI 11B7CN]: the “Corrected MIC” value in experiment [18] turned out to be 8 µg/mL; in [20] (E. faecalis EFS001), 8 µg/mL; in [20] (E. faecalis EFS004) it was 8 µg/mL; in experiment [20] (E. faecalis EFS008) it was 32 µg/mL; in experiment [23], 32 µg/mL. Further, the MIC in experiment [7] was 16 µg/mL; in experiment [8], over 256 µg/mL; in experiment [9], over 256 µg/mL; in experiment [10] it was 32 µg/mL; in experiment [11] it was 64 µg/mL; in experiment [12], 64 µg/mL. For the same substance, the MIC is 256 µg/mL in [13], 4 µg/mL in experiment [1], 256 µg/mL in experiment [14] and 64 µg/mL in experiment [15]. Further, the “Growth time of cells at which maximum activity occurs” value in [17] (early mid-log) is 140 min; in [17] (late mid-log) it was 230 min. For the same substance, the “Effect on membrane permeabilizing activity” value in experiment [17] (peptide pre-incubated in HEPES/sucrose buffer with 5 mM Mg2+) and in experiment [17] (peptide pre-incubated in HEPES/sucrose buffer with 150 mM NaCl) was “significant inhibition” throughout.
With i L K K W P W W P W R R k [MBI 11E3CN], the “Corrected MIC” value stood at 8 µg/mL in experiment [18]; 1 µg/mL in experiment [19] (S. aureus SA010); 4 µg/mL in [19] (S. aureus SA011); 4 µg/mL in experiment [19] (S. aureus SA014); 16 µg/mL in experiment [19] (S. aureus SA018); 1 µg/mL in experiment [19] (S. aureus SA025). The “Corrected MIC” value in [19] (S. aureus SA093) is 1 µg/mL; in experiment [20] (E. faecalis EFS001) it was 8 µg/mL; in [20] (E. faecalis EFS004), 2 µg/mL; in experiment [20] (E. faecalis EFS008), 16 µg/mL; in experiment [21], 128 µg/mL; in experiment [22] it was 2 µg/mL. For the same substance, the “Corrected MIC” value is 64 µg/mL in [23], 8 µg/mL in experiment [25], over 128 µg/mL in experiment [24] and over 128 µg/mL in experiment [26].

The record behind these values is patent publication US6538106B1, “Compositions and methods for treating infections using analogues of indolicidin” (priority 1996, dated 2003).
